# Values of other authors, collected in US20140328795A1, “VIRUCIDAL SMALL MOLECULE AND USES THEREOF” (The Texas A&M University System, priority 2012, published 2014).
# Tested on: HIV
# Settings: VOICE trial among African women; cited from earlier work
smiles,measurement,value
C[C@H](Cn1cnc2c(N)ncnc21)OCP(=O)(O)O [tenofovir],protection against HIV,failed to provide protection against HIV
